In patent US20030180304A1, “Secretory tyrosine phosphatases from mycobacteria” (priority 2000, published 2003):
Entries after “also recorded” stand apart in the source; their conditions may differ.

Experiments:
MptpA = target: T1, MptpA (Mycobacterium tuberculosis, UniProt P9WIA1); assay type: biochemical, M. tuberculosis; conditions: pH 7
T1 construct: made in house; host or cells: E. coli BL21 (pGEX-5X-3)

MptpB = target: T2, MptpB (Mycobacterium tuberculosis, UniProt I6WXK4); assay type: biochemical, M. tuberculosis; conditions: pH 5.6
T2 construct: made in house; host or cells: E. coli BL21 (pGEX-5X-3)
T2 sequence (I6WXK4 whole entry, looked up): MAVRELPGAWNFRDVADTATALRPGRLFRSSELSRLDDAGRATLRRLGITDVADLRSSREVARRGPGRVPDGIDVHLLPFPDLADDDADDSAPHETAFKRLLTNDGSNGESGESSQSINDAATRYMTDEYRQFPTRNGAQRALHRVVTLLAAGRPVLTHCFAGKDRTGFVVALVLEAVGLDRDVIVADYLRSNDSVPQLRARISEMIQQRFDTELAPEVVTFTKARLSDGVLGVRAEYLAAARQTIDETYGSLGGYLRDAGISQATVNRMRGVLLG

T1 sequence (P9WIA1 whole entry): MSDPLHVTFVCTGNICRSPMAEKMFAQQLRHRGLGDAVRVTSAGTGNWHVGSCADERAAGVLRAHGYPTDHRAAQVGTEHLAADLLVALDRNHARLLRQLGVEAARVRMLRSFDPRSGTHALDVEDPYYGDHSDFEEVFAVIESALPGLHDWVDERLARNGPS

Row | Structure (SMILES) | Effect of inhibitor on the activity of MptpA towards tyrosine phosphorylated MBP (MptpA) | Effect of inhibitor on the activity of MptpB towards tyrosine phosphorylated MBP (MptpB)
1 | C=C1[C@@H](O)[C@@H]2O[C@]3(CC[C@H](/C=C/[C@@H](C)[C@@H]4CC(C)=C[C@@]5(O[C@H](C[C@@](C)(O)C(=O)O)CC[C@H]5O)O4)O3)CC[C@H]2O[C@@H]1[C@@H](O)C[C@H](C)[C@H]1O[C@@]2(CCCCO2)CC[C@H]1C [okadaic acid] | had no effect; also recorded: did not inhibit | had no effect; also recorded: did not inhibit
2 | O=C(O)C(O)C(O)C(=O)O (stereo not shown) [tartrate] | had no effect; also recorded: insensitive | had no effect; also recorded: insensitive
3 | [Na+].[Na+].[Na+].[O]=[V]([O-])([O-])[O-] [sodium orthovanadate] | inhibited | inhibited
4 | c1ccc(C2CN3CCSC3=N2)cc1 (stereo not shown) [tetramisole] | had no effect; also recorded: insensitive | had no effect; also recorded: insensitive
5 | [F-].[Na+] [sodium fluoride] | had no effect | had no effect
